Source: patent publication US20260363243A1 (priority 2022, published 2026)
Where two headings read alike, the source gives them in different places.

Experiments:
cucumber downy mildew [1] = details: Table 3, data from Li, J. L. et al. 2020, cited from earlier work
cucumber downy mildew [2] = assay: Activity in vivo for inhibiting cucumber downy mildew (potting method, greenhouse); details: re-screening, Table 2
From the text: The test and investigation method refers to a SOP-SC-1098 cucumber downy mildew potting method in the fungicide section of Standard operation Specification for testing biological Activity of pesticides written by Kang Zhuo and Gu Baogen.

CC/C=C/CC(=O)N1CCC(c2nc(C3=NOC(c4c(F)cccc4F)C3)cs2)CC1 (centres unmarked) [comparative 2]
Control effect (cucumber downy mildew [1]; 0.625 mg/L): D (45% ≤ D < 60%) | Control effect (cucumber downy mildew [1]; 2.5 mg/L): B (75% ≤ B < 90%) | Control effect (cucumber downy mildew [1]; 10 mg/L): A (90% ≤ A ≤ 100%)

CC/C(C)=C/CC(=O)N1CCC(c2nc(C3=NOC(c4c(F)cccc4F)C3)cs2)CC1 (centres unmarked) [comparative 3]
Control effect (cucumber downy mildew [1]; 0.625 mg/L): E (0% ≤ E < 45%) | Control effect (cucumber downy mildew [1]; 2.5 mg/L): C (60% ≤ C < 75%) | Control effect (cucumber downy mildew [1]; 10 mg/L): A (90% ≤ A ≤ 100%)

O=C(CCO)N1CCC(c2nc(C3=NOC(c4c(F)cccc4F)C3)cs2)CC1 (centres unmarked) [comparative 4]
Control effect (cucumber downy mildew [1]; 0.625 mg/L): E (0% ≤ E < 45%) | Control effect (cucumber downy mildew [1]; 2.5 mg/L): E (0% ≤ E < 45%) | Control effect (cucumber downy mildew [1]; 10 mg/L): D (45% ≤ D < 60%)

O=C(CC1CCCCC1)N1CCC(c2nc(C3=NOC(c4c(F)cccc4F)C3)cs2)CC1 (centres unmarked) [comparative 5]
Control effect (cucumber downy mildew [1]; 0.625 mg/L): E (0% ≤ E < 45%) | Control effect (cucumber downy mildew [1]; 2.5 mg/L): D (45% ≤ D < 60%) | Control effect (cucumber downy mildew [1]; 10 mg/L): A (90% ≤ A ≤ 100%)

O=C(CN1CCCCC1)N1CCC(c2nc(C3=NOC(c4c(F)cccc4F)C3)cs2)CC1 (centres unmarked) [comparative 6]
Control effect (cucumber downy mildew [1]; 0.625 mg/L): E (0% ≤ E < 45%) | Control effect (cucumber downy mildew [1]; 2.5 mg/L): E (0% ≤ E < 45%) | Control effect (cucumber downy mildew [1]; 10 mg/L): E (0% ≤ E < 45%)

O=C(CN1CCCC(O)C1)N1CCC(c2nc(C3=NOC(c4c(F)cccc4F)C3)cs2)CC1 (centres unmarked) [comparative 7]
Control effect (cucumber downy mildew [1]; 0.625 mg/L): E (0% ≤ E < 45%) | Control effect (cucumber downy mildew [1]; 2.5 mg/L): E (0% ≤ E < 45%) | Control effect (cucumber downy mildew [1]; 10 mg/L): E (0% ≤ E < 45%)

Cc1ccc(-c2c(Cl)nc(C#N)n2S(=O)(=O)N(C)C)cc1 [cyazofamid, reference compound]
Control effect (cucumber downy mildew [2]; 0.02 mg/L): E (0%≤E<45%) | Control effect (cucumber downy mildew [2]; 0.078 mg/L): B (75%≤B<90%) | Control effect (cucumber downy mildew [2]; 0.312 mg/L): A (90%≤A≤100%) | Control effect (cucumber downy mildew [2]; 1.25 mg/L): A (90%≤A≤100%)

COc1ccc(C(=CC(=O)N2CCOCC2)c2ccc(Cl)cc2)cc1OC [dimethomorph, reference compound]
Control effect (cucumber downy mildew [2]; 0.02 mg/L): C (60%≤C<75%) | Control effect (cucumber downy mildew [2]; 0.078 mg/L): B (75%≤B<90%) | Control effect (cucumber downy mildew [2]; 0.312 mg/L): A (90%≤A≤100%) | Control effect (cucumber downy mildew [2]; 1.25 mg/L): A (90%≤A≤100%)
